The values below are quoted from earlier work in patent US20040197402A1, “Oxcarbazepine dosage forms” (priority 2001, published 2004).

The conditions of the series: background statement.

As for `NC(=O)N1c2ccccc2CC(=O)c2ccccc21` [Oxcarbazepine, 10, 11-dihydro-10-oxo-5H-dibenz [b,f], azepine-5-carboxamide], the solubility in water entry is recorded as “poor solubility in water”.
